Experimental data: patent publication US9321757B2, “Heterocyclic compound” (Takeda Pharmaceutical Company Limited, priority 2013, dated 2016)

Experiments:
NC1-induced nephritis = assay type: in vivo, rat
Protocol: 8-Week-old female WKY rats (Japan Charles River Laboratories) were used as 7 rats/group. Bovine NC1 (The non-collagenous domain of α3 chain of type IV collagen, Chondrex, inc) was dissolved in phosphate buffer to adjust the concentration to 0.3 mg/mL. The equal amount of complete Freund's adjuvant (H37 Ra, Diffco) was added thereto to give an emulsion. The emulsion (0.2 mL) was inoculated intracutaneously into the rat tail head (the 0 day). The compound was orally administered for 5 weeks (the 0 to 35th day, twice a day). 0.5% Methyl cellulose (5 mL/kg) was orally administered as a control. The urine was collected for 4 hr on the −1st day (Pre value) and the 35th day. The collected urine was centrifuged at 400 G, for 5 min at 4° C., the supernatant was kept at −80° C., and the amounts of creatinine and protein were measured. The body weight was measured on the 0th day and the 35th day. A comparison between the groups was analyzed by Dunnett test, and p≦0.05 was evaluated as a significance level.

[1] = tested on: tumor necrosis factor (TNFα) production in the serum; assay: R848 Tolerance Test in Rat; assay type: in vivo; conditions: Lewis rat serum 1 hr after R848 i.p., mean ± S.E.
Protocol: 6-Week-old male LEW/CrlCrlj (Lewis) rats (Japane Charles River Laboratories) were used as 8 rats/group. R848 (Enzo Life Sciences) was dissolved in dimethyl sulfoxide (500 mM), and the concentration of solution was adjusted to 300 μM with saline, and 1.0 mL thereof was intraperitoneally administered in the rat. The compound was orally administered 1 hr before R848 administration. 0.5% Methyl cellulose (5 mL/kg) was orally administered as a control. The blood was collected from the abdominal aorta 1 hr after R848 administration. The blood was left overnight at 4° C., and the serum was collected by centrifugation. The amount of the tumor necrosis factor (TNFα) production in the serum was measured by […] TNF-alpha Quantikine ELISA Kit (R&D Systems). Shirley-Williams test was used for a dose-dependent manner, and p≦0.05 was evaluated as a significance level.

IRAK-4 = molecular target: T1, IRAK-4 (Homo sapiens, UniProt Q9NWZ3); assay: IRAK-4 Enzyme Inhibition Test (LANCE method); assay type: biochemical; conditions: compound concentration 1 μM; well without enzyme = 100% inhibition; read-out: IRAK4 enzyme inhibitory rate (%) at 1 μM
T1 construct: purchased Carna Biosciences, Inc
T1 sequence (Q9NWZ3 1-460): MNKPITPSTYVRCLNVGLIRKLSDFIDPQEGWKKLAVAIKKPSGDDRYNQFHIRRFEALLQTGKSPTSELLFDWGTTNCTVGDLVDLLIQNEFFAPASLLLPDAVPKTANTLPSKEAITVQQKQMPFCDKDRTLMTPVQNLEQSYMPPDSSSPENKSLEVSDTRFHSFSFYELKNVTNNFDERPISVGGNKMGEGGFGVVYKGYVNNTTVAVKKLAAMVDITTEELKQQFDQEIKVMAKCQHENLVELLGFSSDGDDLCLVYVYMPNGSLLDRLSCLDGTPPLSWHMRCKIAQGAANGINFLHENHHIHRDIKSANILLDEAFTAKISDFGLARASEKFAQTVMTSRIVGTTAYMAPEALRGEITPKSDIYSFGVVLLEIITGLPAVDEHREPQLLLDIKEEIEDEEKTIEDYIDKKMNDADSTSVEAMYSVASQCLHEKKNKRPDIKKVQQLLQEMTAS
Protocol: IRAK-4 enzyme inhibitory activities of test compounds were measured by LANCE method (PerkinElmer). First, a test compound diluted with assay buffer (50 mM HEPES (pH7.5), 10 mM MgCl2, 1 mM EGTA, 2 mM DTT, 0.01% Tween 20, 0.01% BSA) was added to 384-well plate at 2 μL each. Then, IRAK-4 (Carna Biosciences, Inc.) and a fluorescence-labeled peptide substrate (ULight-ACC peptide, PerkinElmer) solution diluted with assay buffer at 240 ng/mL and 37.5 nM, respectively were added at 2 μL each. Then, enzyme reaction was started by adding 2 μL each of ATP solution prepared with assay buffer at 1.5 mM. After the reaction at room temperature for 1 hr, Detection Buffer (PerkinElmer) prepared to be 20 mM EDTA, 1 nM europium-labeled anti-phospho ACC antibody (PerkinElmer) was added at 6 μL each. After standing at room temperature for 1 hr, fluorescence intensity (excitation wavelength 340 nm, fluorescence wavelength 665 nm, delay time 100 microseconds) was measured by a plate reader, Envision (PerkinElmer). The inhibitory activity of each compound was calculated as relative value where fluorescence intensity of a well without enzyme is considered as 100% inhibition.

| SMILES | Proteinuria (mg/mg Cre 4 hr), Pre (−1st day) (NC1-induced nephritis; WKY rat, 3 mg/kg group, Pre value (−1st day, before immunisation and dosing), mean ± S.E.) [mg/mg Cre 4 hr] | Proteinuria (mg/mg Cre 4 hr), 35th day (NC1-induced nephritis; WKY rat, 3 mg/kg orally twice a day, 0 to 35th day, mean ± S.E., p ≦ 0.05 vs. Control 31.7 ± 4.26) [mg/mg Cre 4 hr] | Body weight difference from the 0th day on the 35th day (g) (NC1-induced nephritis; rat, in vivo, po, 3 mg/kg) | TNFα production amount ([1]; 0.3 mg/kg orally 1 hr before R848, Control 1090 ± 137) [pg/mL] | TNFα production amount ([1]; 1 mg/kg orally 1 hr before R848, Control 1090 ± 137) [pg/mL] | TNFα production amount ([1]; 3 mg/kg orally 1 hr before R848, p ≦ 0.05 vs. Control 1090 ± 137) [pg/mL] | TNFα production amount ([1]; 10 mg/kg orally 1 hr before R848, p ≦ 0.05 vs. Control 1090 ± 137) [pg/mL] | inhibition at 1 µM (IRAK-4) [%] | TNFα production amount ([1]; 0.27 mg/kg orally 1 hr before R848, Control 945 ± 106) [pg/mL] | TNFα production amount ([1]; 0.91 mg/kg orally 1 hr before R848, Control 945 ± 106) [pg/mL] | TNFα production amount ([1]; 2.73 mg/kg orally 1 hr before R848, Control 945 ± 106) [pg/mL] | TNFα production amount ([1]; 9.09 mg/kg orally 1 hr before R848, p ≦ 0.05 vs. Control 945 ± 106) [pg/mL] |
| --- | --- | --- | --- | --- | --- | --- | --- | --- | --- | --- | --- | --- |
| Cn1cc(NC(=O)c2coc(-c3ccnc(NCC(F)(F)F)c3)n2)c(N2CCN(CCO)C2=O)n1 [Example 57, N-(3-(3-(2-hydroxyethyl)-2-oxoimidazolidin-1-yl)-1-methyl-1H-pyrazol-4-yl)-2-(2-((2,2,2-trifluoroethyl)amino)pyridin-4-yl)-1,3-oxazole-4-carboxamide] | 0.32 ± 0.05 | 18.1 ± 2.43 | +63.7 ± 2.8 g | 1349 ± 181 | 736 ± 76.2 | 306 ± 45.9 | 236 ± 26.8 | 100 |  |  |  |  |
| Cn1cc(NC(=O)c2coc(-c3ccnc(NCC(F)(F)F)c3)n2)c(N2CCNC2=O)n1 [Example 58, N-(1-methyl-3-(2-oxoimidazolidin-1-yl)-1H-pyrazol-4-yl)-2-(2-((2,2,2-trifluoroethyl)amino)pyridin-4-yl)-1,3-oxazole-4-carboxamide] |  |  |  |  |  |  |  | 99 | 1070 ± 160 | 804 ± 116 | 628 ± 31.1 | 326 ± 41.1 |
